Measured values published in the NIST ThermoML archive (doi:10.1021/je050462y).
Numbers after ± are expanded uncertainties.

Legend:
[1] = 101.33 kPa, Liquid
[2] = wn = mass fraction of the nth substance listed; settings: 101 kPa, Liquid; for mass density: w1 = 0.3; for viscosity: Capillary tube (Ostwald / Ubbelohde) method, w1 = 0.5

Structure (SMILES) | mass density ([1]; 313.15 K) [kg/m3] | mass density ([1]; 323.15 K) [kg/m3] | mass density ([1]; 333.15 K) [kg/m3] | mass density ([2]; 313.15 K) [kg/m3] | mass density ([2]; 323.15 K) [kg/m3] | mass density ([2]; 333.15 K) [kg/m3] | viscosity ([2]; 303.15 K) [mPa·s] | viscosity ([2]; 313.15 K) [mPa·s] | viscosity ([2]; 323.15 K) [mPa·s] | viscosity ([2]; 333.15 K) [mPa·s]
CC(C)(N)CO [2-amino-2-methylpropan-1-ol] | 917.2 ± 0.6 | 909.2 ± 0.6 | 900.7 ± 0.6 | – | – | – | – | – | – | –
OCCNCCO [diethanolamine] + O | – | – | – | 1026 ± 0.5 | 1021.3 ± 0.5 | 1014.4 ± 0.4 | – | – | – | –
CN(CCO)CCO [N-methyldiethanolamine] + O | – | – | – | 1017.1 ± 0.6 | 1011.5 ± 0.6 | 1004.1 ± 0.6 | 7.39 ± 0.07 | 5.08 ± 0.05 | 3.62 ± 0.03 | 2.72 ± 0.03
OCCNCCO [diethanolamine] | 1084.7 ± 0.3 | 1077.4 ± 0.3 | 1070.3 ± 0.3 | – | – | – | – | – | – | –
CN(CCO)CCO [N-methyldiethanolamine] | 1025 ± 0.6 | 1017.4 ± 0.6 | 1009.6 ± 0.6 | – | – | – | – | – | – | –
